Literature values as cited in article PMC9262839 (Cancer Discovery, 2022).

Legend:
[1] = cited from earlier work
NSCLC with EGFRexon20ins = conditions: cited from earlier work

Molecule | patients with ≥grade 3 diarrhea [1] [%] | patients with ≥grade 3 treatment-related adverse events [1] | objective response rate (ORR) (NSCLC with EGFRexon20ins)
C=CC(=O)Nc1cc(Nc2ncc(C(=O)OC(C)C)c(-c3cn(C)c4ccccc34)n2)c(OC)cc1N(C)CCN(C)C [Mobocertinib] | 21 | around 40% | –
amivantamab: EGFR and MET bispecific antibody (antibody, chains of the INN, looked up, V domains shown) VH: QVQLVESGGGVVQPGRSLRLSCAASGFTFSTYGMHWVRQAPGKGLEWVAVIWDDGSYKYYGDSVKGRFTISRDNSKNTLYLQMNSLRAEDTAVYYCARDGITMVRGVMKDYFDYWGQGTLVTVSS VL: AIQLTQSPSSLSASVGDRVTITCRASQDISSALVWYQQKPGKAPKLLIYDASSLESGVPSRFSGSESGTDFTLTISSLQPEDFATYYCQQFNSYPLTFGGGTKVEIK VH2: QVQLVQSGAEVKKPGASVKVSCETSGYTFTSYGISWVRQAPGHGLEWMGWISAYNGYTNYAQKLQGRVTMTTDTSTSTAYMELRSLRSDDTAVYYCARDLRGTNYFDYWGQGTLVTVSS VL2: DIQMTQSPSSVSASVGDRVTITCRASQGISNWLAWFQHKPGKAPKLLIYAASSLLSGVPSRFSGSGSGTDFTLTISSLQPEDFATYYCQQANSFPITFGQGTRLEIK | – | – | around 40%
